Test results as given in US20250268926A1, “METHOD AND COMPOSITION FOR TREATING, ALLEVIATING OR PREVENTING A DISEASE OR CONDITION CAUSED BY AIR POLLUTANT” (Hong Kong Baptist University, priority 2024, published 2025).

Experiments:
Type in all cases: cell-based, human
[1] = tested on: BEAS-2B cells; assay: Seahorse substrate oxidation stress test (glucose / fatty acid oxidation); settings: for maximal respiration of cells with oxidation inhibitor: cells with or without PM2.5
Method: (§1) Cell Mito stress test: BEAS-2B cells were seeded in the XF 96-well Seahorse assay miniplates with a density of 20,000 cells/well in BEGM™ bronchial epithelial cell growth medium and incubated for 24 h at 37° C. After exposure, the cells were washed with XF assay medium including 10 mM glucose, 1 mM sodium pyruvate, and 2 mM L-glutamine (adjusted pH to 7.4 with 0.1 M NaOH) and incubated for 1 h in a 37° C. non-CO2 incubator. Before assay, the sensor cartridge was hydrated in Agilent Seahorse XF Calibrant at 37° C. in a non-CO2 incubator overnight, and oligomycin (port A final 1 μM), carbonyl cyanide-4-(trifluoromethoxy) phenylhydrazone (FCCP) (port B final 1 μM chosen from the optimization assay) and rotenone antimycin A (port C final 0.5 μM) were added to the corresponding ports of the hydrated sensor cartridge. Then the cartridge was transferred to the Seahorse analyzer (Agilent Technologies) to calibrate the period for approximately 20 min. When the calibration has been completed, the utility plate was removed and the cell miniplate was placed to start the assay. The assay was divided into four parts. After the equilibration period was three basal assays, and then oligomycin was added to inhibit the complex V (ATP synthase) for three cycles, FCCP was followed to stimulate maximal respiration in mitochondria by uncoupling ATP synthesis from electron transport. Lastly, rotenone plus antimycin A was added to determine the non-mitochondrial respiratory rate. Oxygen consumption rate (OCR) was used to assess the mitochondrial respiratory change.
The substrate oxidation stress test was used to assess the specific mitochondrial substrates that were relevant or required for cellular phenotype and function. Two different inhibitors (UK50099 for the glucose pathway and etomoxir for the long-chain fatty acids pathway) were added before the Mito stress test and the following process was the same with the Mito stress test.

[2] = tested on: OGT; assay: qPCR gene expression, OGT; settings: after PM2.5 exposure
Method: (§2) Total RNA was extracted from BEAS-2B cells with RNAiso plus kit (TaKaRa, Shiga, Japan) according to the manufacturer's instructions. Reverse transcription of cDNA synthesis and real-time quantitative polymerase chain reaction (qPCR) were performed as described previously. All primers synthesized at BGI Co., Ltd. (Hong Kong, China) were described in Table 2.

[3] = tested on: BEAS-2B cells; assay: Seahorse Cell Mito stress test (OCR); settings: for ATP production / basal respiration / maximal respiration: after exposure to PM2.5 from both Taiyuan and Guangzhou (200 μg/mL), metabolite 200 μM
Method: (§3) To detect the cell viability, different concentrations (25 μM, 50 μM, 100 μM, and 200 μM) of selected metabolic markers were added to BEAS-2B cell cultures for 24 h, followed by 200 μg/mL PM2.5 samples for another 24 h. After exposure, 10 μL CCK-8 with 100 μL mediums were added to the cells and incubated for 1.5 h, the absorption was detected at 450 nm to assess cell viability. Agilent Seahorse assays were used to evaluate the effects of metabolic markers on mitochondrial functions. The OCR of cells was determined after being treated by both metabolic markers (200 μM) and PM2.5 samples (200 μg/mL) (n=3).
as §1

[4] = tested on: GFAT; assay: qPCR gene expression, GFAT; settings: after exposure to PM2.5
Method: as §2

[5] = tested on: PGC-1α; assay: qPCR gene expression, PGC-1α; settings: repressed by PM2.5 exposure
Method: as §2

[6] = tested on: BEAS-2B cells; assay: Cell viability (CCK-8) of BEAS-2B cells given metabolic markers, then PM2.5; settings: metabolite 25-200 μM for 24 h, then 200 μg/mL PM2.5 for 24 h
Method: as §3

[7] = tested on: Phospho1; assay: qPCR gene expression, Phospho1
Method: as §2

Row | Compound | ATP production [3] | basal respiration [3] | maximal respiration [3] | cell viability reduced by PM2.5 exposure [6] | further results
1 | uridine diphosphate N-acetylglucosamine [UDP-GlcNAc] | significantly increase | significantly increase | significantly increase | – | increase of cells' glucose oxidation ([1]; cultures with and without PM2.5): 1.6 fold; OGT expression [2]: partially rescued; GFAT expression [4]: interacted with the decline of GFAT
2 | CC(=O)N[C@@H](CC(=O)O)C(=O)O [NAA, N-acetyl-aspartic acid] | significantly increase | significantly increase | significantly increase | – | –
3 | C[N+](C)(C)CCOP(=O)([O-])O [Pc, phosphocholine] | significantly increase | significantly increase | significantly increase | improve the cell viability | PGC-1α expression [5]: rescued; maximal respiration, fatty acid oxidation test ([1]; only in the PM2.5-exposed lung cells): significantly increased; effect against adverse impacts of the TY1 panel on mitochondrial functions ([3]; cells exposed to TY1): protective effects; Phospho1 expression ([7]; after PM2.5 exposure): greatly downregulated; Phospho1 expression ([7]; normal cells): no effects
4 | NCCS(=O)(=O)O [taurine] | – | – | – | improve the cell viability | –
5 | CN(CC(=O)O)C(=N)N [creatine] | – | – | – | improve the cell viability | –
6 | N#C/C(=C\c1cn(-c2ccccc2)c2ccccc12)C(=O)O [UK5099, reference compound] | – | – | – | – | maximal respiration of cells with oxidation inhibitor [1]: remarkably reduced
7 | CCOC(=O)[C@@]1(CCCCCCOc2ccc(Cl)cc2)CO1 [etomoxir, reference compound] | – | – | – | – | maximal respiration of cells with oxidation inhibitor [1]: did not change
